Where two headings read alike, the source gives them in different places.
System: HIV-1JR-FL
Assay: Viral infection assay, recombinant HIV-1 pseudotyped with JR-FL Env (wild type and mutants), Cf2Th-CD4/CCR5 cells
Assay type: cell-based
Conditions: for Fold change: mutant/wild-type IC50
Description: HIV-1 Env mutants. Mutations were introduced into the plasmid expressing the fulllength HIV-1YU2 or HIV-1JR-FL Envs using the QuikChange II site-directed mutagenesis protocol or the QuikChange multi site-directed mutagenesis kit (Stratagene). The presence of the desired mutations was confirmed by DNA sequencing. All HIV-1 Env residues are numbered based on alignment with the HXBc2 prototypic sequence, according to current convention.
Production of recombinant HIV-1 expressing luciferase. […] After 48 hours, the supernatant was collected, buffered with 50 mM Hepes pH 7.4 (final concentration) and centrifuged for 5 minutes at 750×g and 4° C. The virus-containing supernatant was used directly or frozen at −80° C.
Viral infection assay. Each test compound was serially diluted in DMSO in a 96-well B&W isoplate (PerkinElmer, Boston, Mass.) using an HP D300 Digital Dispenser, to a final volume of 450 nl. DMSO was used as a control. Viruses pseudotyped with a specific Env were added to each well and incubated briefly at room temperature. Cf2Th-CD4/CCR5 cells were detached with StemPro Accutase Cell Dissociation Reagent (Invitrogen, cat #A11105-01), washed once, and 5000 cells were added to each well. […] Following incubation, the medium was aspirated and cells were lysed with 30 μl of Passive Lysis Buffer (Promega, cat #E1941). The activity of the firefly luciferase, which was used as a reporter protein in the system, was measured with a Centro LB 960 luminometer (Berthold Technologies, Oak Ridge, Tenn.). One hundred microliters of assay buffer (15 mM MgSO4, 15 mM KH2PO4/K2HPO4 pH 7.8, 1 mM ATP and 1 mM DTT) was injected to each well, followed by a 50 μl injection of 1 mM Dluciferin potassium salt (BD Pharmingen, San Jose, Calif.); luminescence was measured for 2 sec. Infection of PBMC was done as above, but 20,000-40,000 cells/well and viruses concentrated by ultracentrifugation were used. After four hours of incubation with viruses, the cells were centrifuged at 200×g for 6 minutes at 4° C., resuspended in 100 μl RPMI-PBMC medium and incubated at 37° C. for an additional 36-40 hours (total 40-44 hours). Supernatant was removed after centrifugation at 400×g for 5 minutes and cells were processed to detect luciferase activity, as described above.

O=C(N/N=C/c1ccc(O)cc1)Nc1cccc2nsnc12 [Compound 18A]
IC50 (Example 8 table, read-out: IC50 (JR-FL)): 3.6 µM
Fold change (JR-FL Env D167A): 1.5
IC50 (JR-FL Env D167A, read-out: IC50): 5.3 ± 1.5 µM
Fold change (JR-FL Env E153A): 0.9
IC50 (JR-FL Env E153A, read-out: IC50): 3.1 ± 0.7 µM
Fold change (JR-FL Env E168K + N188A): 0.7
Fold change (JR-FL Env I109W): 0.4
IC50 (JR-FL Env I109W, read-out: IC50): 1.6 ± 0.8 µM
Fold change (JR-FL Env I154A): 4.8
IC50 (JR-FL Env I154A, read-out: IC50): 17.1 ± 0.9 µM
Fold change (JR-FL Env I194A): 0.5
IC50 (JR-FL Env I194A, read-out: IC50): 1.8 ± 0.4 µM
Fold change (JR-FL Env I424A): 4.5
IC50 (JR-FL Env I424A, read-out: IC50): 16.2 ± 2 µM
Fold change (JR-FL Env K155A): 0.6
IC50 (JR-FL Env K155A, read-out: IC50): 2.1 ± 0.9 µM
Fold change (JR-FL Env K178A): 0.4
IC50 (JR-FL Env K178A, read-out: IC50): 1.6 ± 0.3 µM
Fold change (JR-FL Env L175A): 2.1
IC50 (JR-FL Env L175A, read-out: IC50): 7.7 ± 1.2 µM
Fold change (JR-FL Env L179G): 1.8
IC50 (JR-FL Env L179G, read-out: IC50): 6.5 ± 0.7 µM
Fold change (JR-FL Env L193A): 5.0
IC50 (JR-FL Env L193A, read-out: IC50): 18.1 ± 2 µM
Fold change (JR-FL Env M147A): 1.3
IC50 (JR-FL Env M147A, read-out: IC50): 4.8 ± 1.2 µM
Fold change (JR-FL Env M434A): 5.0
IC50 (JR-FL Env M434A, read-out: IC50): 17.9 ± 1.2 µM
Fold change (JR-FL Env N136A): 0.5
IC50 (JR-FL Env N136A, read-out: IC50): 1.8 ± 0.1 µM
Fold change (JR-FL Env N139A): 0.5
IC50 (JR-FL Env N139A, read-out: IC50): 1.9 ± 0.2 µM
Fold change (JR-FL Env N141A): 0.5
IC50 (JR-FL Env N141A, read-out: IC50): 1.7 ± 0.3 µM
Fold change (JR-FL Env N156A): 5.2
IC50 (JR-FL Env N156A, read-out: IC50): 18.7 ± 1.5 µM
Fold change (JR-FL Env N187A + N188A): 0.7
Fold change (JR-FL Env N188A): 1.2
IC50 (JR-FL Env N188A, read-out: IC50): 4.2 ± 0.8 µM
Fold change (JR-FL Env Q114E): 0.9
IC50 (JR-FL Env Q114E, read-out: IC50): 3.4 ± 0.6 µM
Fold change (JR-FL Env Q422A): 2.2
IC50 (JR-FL Env Q422A, read-out: IC50): 7.8 ± 1.7 µM
Fold change (JR-FL Env R166A): 0.8
IC50 (JR-FL Env R166A, read-out: IC50): 2.9 ± 0.6 µM
Fold change (JR-FL Env T143A + S146A): 0.7
Fold change (JR-FL Env T163A + S164A): 0.8
Fold change (JR-FL Env V134A): 0.8
IC50 (JR-FL Env V134A, read-out: IC50): 2.8 ± 2.1 µM
Fold change (JR-FL Env V430S): 0.2
IC50 (JR-FL Env V430S, read-out: IC50): 0.7 ± 0.3 µM
Fold change (JR-FL Env W112A): 0.8
IC50 (JR-FL Env W112A, read-out: IC50): 2.8 ± 0.7 µM
Fold change (JR-FL Env W479A): 0.2
IC50 (JR-FL Env W479A, read-out: IC50): 0.8 ± 0.2 µM
Fold change (JR-FL Env Y173A): 0.9
IC50 (JR-FL Env Y173A, read-out: IC50): 3.1 ± 1.2 µM
Fold change (JR-FL Env Y177A): 2.8
IC50 (JR-FL Env Y177A, read-out: IC50): 10.2 ± 1 µM
Fold change (JR-FL Env Y435A): 3.5
IC50 (JR-FL Env Y435A, read-out: IC50): 12.7 ± 3.5 µM
IC50 (JR-FL Env double mutant E168K + N188A, read-out: IC50): 2.4 ± 1.4 µM
IC50 (JR-FL Env double mutant N187A + N188A, read-out: IC50): 2.5 ± 0.6 µM
IC50 (JR-FL Env double mutant T143A + S146A, read-out: IC50): 2.4 ± 0.2 µM
IC50 (JR-FL Env double mutant T163A + S164A, read-out: IC50): 2.7 ± 0.3 µM
Fold change (JR-FL Env wild type): 1
IC50 (JR-FL Env wild type, read-out: IC50): 3.6 µM
Therapeutic Index (TI) (calculated from IC50 against JR-FL and A-MLV): 15.9
effect of glycosidase inhibitor treatment of virions on 18A inhibition (virions produced in the presence of two glycosidase inhibitors): Neither treatment had a significant effect

Reference: patent publication US20170298056A1, “SMALL MOLECULE INHIBITORS OF HIV-1 ENTRY AND METHODS OF USE THEREOF” (Dana-Farber Cancer Institute, Inc., priority 2014, published 2017)
